Where two headings read alike, the source gives them in different places.
Key:
rat A2A receptors = target: T1, rat A2A receptors (Rattus norvegicus, UniProt P30543); assay: Displacement of [3H]CGS 21680 binding to A2A receptors in rat striatal membranes; details: read-out: Ki rA2A
T1 construct: to A2A receptors from rat striatal membranes; from tissue; host or cells: rat striatal membranes
Method: (§1) All nonradioactive compounds were initially dissolved in DMSO and diluted with buffer to the final concentration, where the amount of DMSO never exceeded 2%. Incubations were terminated by rapid filtration over Whatman GF/B filters using a Brandell cell harvester. The tubes were rinsed three times with 3 mL buffer each.
(§2) At least six different concentrations of competitor, spanning 3 orders of magnitude adjusted appropriately for the IC50 value of each compound, were used. IC50 values, calculated with the nonlinear regression method implemented in Graph-Pad Prism (San Diego, CA) were converted to apparent Ki values as described by [Linden [1982]]. Hill coefficients of the tested compounds were in the range of 0.8–1.1.
(§3) At A2B receptors, two radioligand binding assays (Table 1) were used. Ki values of xanthine derivatives were determined in displacement of binding of the non-selective radioligands […], 8 (4-(2-[7-amino-2-{furyl}{1,2,4}triazolo{2,3-a}{1,3,5}tr nzyl)-8-phenyloxyacetate-1-propyl-xanthine), at human A2B receptors expressed in HEK-293 cell membranes [[Linden and Jacobson, 1998]]. In order to evaluate selectivity, selected derivatives were subjected to standard binding assays at A1, A2A, and A3 receptors. The initial screening utilized rat brain A1/A2A receptors (with radioligands [^3H]R-PIA and [^3H]CGS-21680), and selected compounds were examined at the recombinant human subtypes (Table 1), using [^3H]CPX ([^3H]8-cyclopentyl-1,3-dipropylxanthine) and ^125I-ZM 241385, ^125I-4-(2-[7-amino-2-[2-furyl][1,2,4]triazolo[2,3-a][1,3,5]triazin-5-yl-amino]ethyl)phenol) [[Palmer et al., 1996]].

human A2B receptors = target: T2, human A2B receptors (Homo sapiens, UniProt P29275); assay: Binding at human A2B receptors expressed in HEK-293 cells vs [3H]ZM241385; details: for rA1/hA2B: ratio of Ki rat A1 to Ki human A2B
T2 construct: expressed in transfected cells; host or cells: HEK-293
T2 sequence (P29275 1-332): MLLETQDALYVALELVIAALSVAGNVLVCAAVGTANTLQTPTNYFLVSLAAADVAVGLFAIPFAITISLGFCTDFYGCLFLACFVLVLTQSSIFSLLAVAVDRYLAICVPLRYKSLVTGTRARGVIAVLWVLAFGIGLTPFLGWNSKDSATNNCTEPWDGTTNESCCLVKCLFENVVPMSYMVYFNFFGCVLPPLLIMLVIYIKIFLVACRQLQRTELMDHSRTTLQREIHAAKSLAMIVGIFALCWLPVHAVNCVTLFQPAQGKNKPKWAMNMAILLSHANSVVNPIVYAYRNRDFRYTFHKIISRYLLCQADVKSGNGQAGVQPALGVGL
Method: The plasmid was amplified in competent JM109 cells and plasmid DNA isolated using Wizard Megaprep columns (Promega Corp., Madison, WI).
Colonies were selected by growth of cells in 0.6 mg/mL G418. Transfected cells were maintained in DMEM supplemented with Hams F12 nutrient mixture (1/1), 10% newborn calf serum, 2 mM glutamine, and containing 50 IU/mL penicillin, 50 μg/mL streptomycin, and 0.2 mg/mL Geneticin (G418, Boehringer Mannheim, Indianapolis, IN).
Confluent monolayers of HEK-A2B cells were washed with PBS followed by ice-cold Buffer A (10 mM HEPES, 10 mM EDTA, pH 7.4) with protease inhibitors ([…] benzamidine, […], and […] of each aprotinin, pepstatin, and leupeptin). The cells were homogenized in a Polytron (Brinkmann) for 20 sec, centrifuged at 30,000g, and the pellets washed twice with buffer HE (10 mM HEPES, 1 mM EDTA, pH 7.4 with protease inhibitors). The final pellet was resuspended in buffer HE, supplemented with 10% sucrose and frozen in aliquots at −80°C. For binding assays, membranes were thawed and diluted 5–10-fold with HE to a final protein concentration of approximately 1 mg/mL. […] After incubating for 20 min at room temperature, 50 mL of 10 mg/mL Na-metabisulfite in water was added the quench the reaction. The reaction products were applied to a C18 HPLC column using 4 mM phosphate, pH 6.0/methanol. […] The incubation time was 3 h at 21°C. […] Membranes were filtered on Whatman GF/C filters using a Brandell cell harvester (Gaithersburg, MD) and washed three times over 15–20 sec with ice-cold buffer (10 mM Tris, 1 mM MgCl2, pH 7.4). […] Data from replicate experiments are tabulated as means ± SEM.
At A2B receptors, two radioligand binding assays (Table 1) were used. […] In order to evaluate selectivity, selected derivatives were subjected to standard binding assays at A1, A2A, and A3 receptors.

human A3 receptors = target: T3, human A3 receptors (Homo sapiens, UniProt P0DMS8); assay: Displacement of [125I]AB-MECA binding at human A3 receptors expressed in HEK cells; details: read-out: Ki hA3
T3 construct: expressed in transfected cells; host or cells: HEK-293
T3 sequence (P0DMS8 1-318): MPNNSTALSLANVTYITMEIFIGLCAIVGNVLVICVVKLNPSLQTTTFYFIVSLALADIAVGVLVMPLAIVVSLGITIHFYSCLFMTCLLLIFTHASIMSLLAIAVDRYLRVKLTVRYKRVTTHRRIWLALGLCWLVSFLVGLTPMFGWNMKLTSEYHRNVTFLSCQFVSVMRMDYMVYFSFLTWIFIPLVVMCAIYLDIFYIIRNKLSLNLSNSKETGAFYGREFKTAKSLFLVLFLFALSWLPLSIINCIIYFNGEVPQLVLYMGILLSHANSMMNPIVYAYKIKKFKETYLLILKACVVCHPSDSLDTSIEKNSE
Method: as §3

rat A1 receptors = target: T4, rat A1 receptors (Rattus norvegicus, UniProt P25099); assay: Displacement of [3H]R-PIA binding to A1 receptors in rat brain membranes; details: read-out: Ki rA1
T4 construct: to A1 receptors from rat cerebral cortical membranes; from tissue; host or cells: rat cerebral cortical membranes
T4 sequence (P25099 1-326): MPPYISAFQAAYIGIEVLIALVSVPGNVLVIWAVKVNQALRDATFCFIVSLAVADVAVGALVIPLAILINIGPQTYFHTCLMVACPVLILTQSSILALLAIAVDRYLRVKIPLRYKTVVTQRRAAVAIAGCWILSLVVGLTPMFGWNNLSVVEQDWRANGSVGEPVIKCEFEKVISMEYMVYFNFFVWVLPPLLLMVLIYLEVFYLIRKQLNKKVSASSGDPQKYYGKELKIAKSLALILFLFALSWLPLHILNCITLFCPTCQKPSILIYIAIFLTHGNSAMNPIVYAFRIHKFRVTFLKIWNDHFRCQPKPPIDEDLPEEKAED
Method: as §1, §2, §3

[1] = HEK-293 cells, vs [3H]ZM241385, read-out: Ki hA2B
[2] = rounded values given in text, read-out: Ki at human A2B receptors

T1 sequence (P30543 whole entry): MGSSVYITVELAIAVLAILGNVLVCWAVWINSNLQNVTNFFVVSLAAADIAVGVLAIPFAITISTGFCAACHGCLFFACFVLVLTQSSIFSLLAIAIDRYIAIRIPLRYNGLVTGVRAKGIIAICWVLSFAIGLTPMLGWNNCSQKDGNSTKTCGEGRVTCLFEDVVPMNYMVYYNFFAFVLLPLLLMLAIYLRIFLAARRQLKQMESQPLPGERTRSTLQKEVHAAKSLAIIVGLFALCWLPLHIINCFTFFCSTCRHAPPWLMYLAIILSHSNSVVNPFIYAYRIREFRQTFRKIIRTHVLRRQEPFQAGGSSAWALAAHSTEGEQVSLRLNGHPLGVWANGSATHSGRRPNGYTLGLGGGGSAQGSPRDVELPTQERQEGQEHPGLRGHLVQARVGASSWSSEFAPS

Ki (rat A2A receptors)	Ki (human A2B receptors; [1])	rA1/hA2B (human A2B receptors)	Ki (human A3 receptors)	Ki (rat A1 receptors)	Ki (human A2B receptors; [2])	Compound
0.813 ± 0.299 µM	0.051 ± 0.007 µM	2.6	1.06 µM	0.134 ± 0.019 µM	–	CCCn1c(=O)c2[nH]c(-c3ccc(OCC(=O)NNC(=O)C4CC=CCC4C(=O)O)cc3)nc2n(CCC)c1=O (stereo not drawn) [Compound 18a, 8-[4-[(Carboxymethyl)oxy]phenyl]-1,3-di-(n-propyl)xanthine N-[2-((1-Carboxy)-cis-4-cyclohexene)-carbonyl]hydrazide]
0.0638 ± 0.0213 µM	–	–	0.498 ± 0.139 µM	0.016 ± 0.0005 µM	–	CCCn1c(=O)c2nc(-c3ccc(OCC(=O)NN)cc3)[nH]c2n(CCC)c1=O [Compound 4c]
2.1 µM	0.0279 ± 0.0085 µM	3.4	3.45 µM	0.0958 ± 0.0251 µM	0.028 µM	CCCn1c(=O)c2[nH]c(-c3ccc(OCC(=O)NN4C(=O)C(c5ccccc5)=C(c5ccccc5)C4=O)cc3)nc2n(CCC)c1=O [Compound 17, 8-[4-[(Carboxymethyl)oxy]phenyl]-1,3-di-(n-propyl)xanthine N,N-[(1,2-Diphenyl)maleyl]hydrazide]
1.23 µM	0.144 ± 0.011 µM	1.4	0.551 ± 0.106 µM	0.203 ± 0.041 µM	–	CCCn1c(=O)c2[nH]c(-c3ccc(OCC(=O)NN4C(=O)C=C(C)C4=O)cc3)nc2n(CCC)c1=O [Compound 13, 8-[4-[(Carboxymethyl)oxy]phenyl]-1,3-di-(n-propyl)xanthine N,N-Citraconylhydrazide]
1.54 µM	0.0667 ± 0.037 µM	3.4	0.748 ± 0.234 µM	0.225 ± 0.076 µM	0.067 µM	CCCn1c(=O)c2[nH]c(-c3ccc(OCC(=O)NN4C(=O)C=C(c5ccccc5)C4=O)cc3)nc2n(CCC)c1=O [Compound 16, 8-[4-[(Carboxymethyl)oxy]phenyl]-1,3-di-(n-propyl)xanthine N,N-[(2-Phenyl)maleyl]hydrazide]
1.16 µM	0.0215 ± 0.0015 µM	1.9	0.308 ± 0.088 µM	0.0413 ± 0.0064 µM	–	CCCn1c(=O)c2[nH]c(-c3ccc(OCC(=O)NN4C(=O)C5=C(CCC5)C4=O)cc3)nc2n(CCC)c1=O [Compound 19b, 8-[4-[(Carboxymethyl)oxy]phenyl]-1,3-di-(n-propyl)xanthine N,N-(1-Cyclopentene-1,2-dicarbonyl)-hydrazide]
0.139 ± 0.032 µM	0.0302 ± 0.0005 µM	2.5	1.56 µM	0.0743 ± 0.0066 µM	0.03 µM	CCCn1c(=O)c2[nH]c(-c3ccc(OCC(=O)NN4C(=O)C[C@H](NC(=O)C(F)(F)F)C4=O)cc3)nc2n(CCC)c1=O [Compound 11, 8-[4-[(Carboxymethyl)oxy]phenyl]-1,3-di-(n-propyl)xanthine N,N-[((2S)-Trifluoroacetamido)-succinyl]hydrazide]
0.872 ± 0.412 µM	0.0248 ± 0.0073 µM	2.9	0.43 ± 0.044 µM	0.0708 ± 0.0309 µM	0.025 µM	CCCn1c(=O)c2[nH]c(-c3ccc(OCC(=O)NNC(=O)[C@H](CCC(=O)O)NC(=O)C(F)(F)F)cc3)nc2n(CCC)c1=O [Compound 24a, 8-[4-[(Carboxymethyl)oxy]phenyl]-1,3-di-(n-propyl)xanthine N-[(4-Carboxy-(2S)-Trifluoroacetamido)-n-butanoyl]hydrazide]

Compound	Ki (rat A2A receptors)	Ki (human A2B receptors; [1])	rA1/hA2B (human A2B receptors)	Ki (human A3 receptors)	Ki (rat A1 receptors)	Ki (human A2B receptors; [2])
CCCn1c(=O)c2[nH]c(-c3ccc(OCC(=O)NNC(=O)[C@H](CCSC)NC(=O)OC(C)(C)C)cc3)nc2n(CCC)c1=O [Compound 26, 8-[4-[(Carboxymethyl)oxy]phenyl]-1,3-di-(n-propyl)xanthine N-(N-tert-Butoxycarbonyl-L-methionyl)-hydrazide]	0.524 ± 0.285 µM	0.0397 ± 0.0136 µM	2.8	0.69 ± 0.57 µM	0.113 ± 0.027 µM	0.04 µM
CCCn1c(=O)c2[nH]c(-c3ccc(OCC(=O)NNC(=O)[C@H](CC(C)C)NC(=O)OC(C)(C)C)cc3)nc2n(CCC)c1=O [Compound 25, 8-[4-[(Carboxymethyl)oxy]phenyl]-1,3-di-(n-propyl)xanthine N-(N-tert-Butoxycarbonyl-L-leucinyl)-hydrazide]	2.75 µM	0.0475 ± 0.0025 µM	4.1	0.195 ± 0.084 µM	0.197 ± 0.067 µM	0.048 µM

— article PMC9196953 (Drug development research, 1999)
